One assay relates to corneal buttons. Set-up: species or system rabbit. Conditions: for equilibrium modulus change vs paired control (words): Dresden protocol (riboflavin/R5P + UVA); for viscoelastic ratio change vs paired control (words): Dresden protocol (riboflavin/R5P + UVA) vs R5P-exposed-only control. On the procedure: • 3 rabbits, (n=8 pairs of 3 mm biopsy punched corneal buttons) • Laser Treatments: • Fidelity II, 1069 nm, 450 mW • Focusing: Marker/spark around, not touching the tissue • Objective: ZEISS 40X, NA=0.1463 • Z: increments 20 μm, 5 layers (several intervals) • 1stlayer 15 μm below surface of focus sparking • XY: 10 μm zigzag grid, 3 mm radius circle • With ˜12 gram compression • Motor speed 2.6 mm/s, full circle treatments: ˜25*5 mins • Sample Preparation: • −3 mm biopsy punch (1BT) • not connected to IV system • Prior to LT: 30 mins in 20% w/w Dextran 500 in PBS • 30 mins in 20% w/w ribose in DPBS (˜1.7M) • Post LT: Trypan blue is used to mark endothelium side • Imaged on the same day in DPBS • Overnight storage in DPBS in 4C fridge • 3 hrs prior to indentation, in room temp PBS • Piuma nano-indentation: • For each cornea button, the average of up to 16 indentations are acquired as
• 3 rabbits, (n=10 pairs of 3 mm biopsy punched corneal buttons) • 3 mm biopsy punch • not connected to IV system • Treatment Protocol-1 hr submerged in 20% w/v Ribose for all samples • 1 hr of UV-A lamp irradiation (control was not under UV) • Post Treatment Trypan blue is used to mark endothelium side • Imaged on the same day in DPBS • Overnight storage in DPBS in 4C fridge • 3 hrs prior to indentation, in room temp PBS • Piuma nano-indentation: • For each cornea button, the average of up to 16 indentations are acquired as representative modulus • The average of the representative modulus are presented in appended FIGS. 1-25.
Nano-Indentation: The corneal buttons were stored in PBS in a 4C fridge overnight for hydration equilibrium. Indentations of 5 μm depth using 29-35 μm diameter spherical indenters were performed on the anterior surface of the cornea buttons to acquire 25-second load-relaxation curves. For each button, the average of up to 16 indentations was used as the representative result. The equilibrium modulus and the viscoelastic ratio, defined as equilibrium modulus over instantaneous modulus, were calculated and compared.
Nanoindentation: Indentations were performed on the anterior surface of the cornea buttons. The equilibrium modulus E∞, instantaneous modulus Eo, and the viscoelastic ratio E∞/Eo, were calculated and compared.
After overnight incubation in PBS at 4C to reach equilibrium hydration, corneal buttons in Group A were allowed to return to room temperature the next morning after the respective treatment days while glued to the bottom of a petri-dish with the anterior surface of the corneal button facing upward. A displacement-controlled indenter (Piuma, Optics 11, Amsterdam, The Netherlands) was used to perform micro-indentations on top of the sample surface submerged in PBS; for each sample, multiple tests were performed following an array of 16 equally spaced (4×4) contact points with a spacing of 100 μm to 150 μm, covering roughly a 0.4×0.4 mm^2 area at the center of each corneal button. A spherical glass probe with a 34 μm radius and 0.2 N/m stiffness was used for samples in Group 1A; another spherical glass probe with a 25.5 μm radius and 4.09 N/m stiffness was used for Group 1B, 1C, 1D, and 2C. The indentation process at each contact point was comprised of three consecutive steps of loading Piezo movement of 5 μm for 2 seconds, holding time of 5 s, and unloading for 2 seconds. The load-relaxation curves obtained after indenting each point were then processed using a viscoelastic model to obtain equilibrium modulus and viscoelastic ratio following a fitting algorithm developed by Oyen.

The next assay relates to corneal tissues. As to the kind of experiment: Multiphoton/confocal imaging: autofluorescence and second harmonic generation signal. Set-up: species or system rabbit. The conditions noted are these: anterior 100 μm. The text has this: • The grey value of the top 100 μm (11 Z-stacks) of the cornea button was summed; • The average of the grey value summations are presented in appended FIGS. 1-25. • […] • The average of the grey value summations and Representative images at ˜600*600*100 μm in x, y, z are presented in appended FIGS. 1-25. The autofluorescence and second harmonic generation (SHG) signals of the corneal tissues in Group A were investigated to reveal the presence of CxLs and structural changes in collagenous ECM after hydration equilibrium in PBS on the same night of individual treatment days. Imaging was performed with a Nikon TI Eclipse inverted microscope using a Ti: Sapphire laser Chameleon Ultra II at 860 nm as the light source and a Nikon Apo LWD 20× objective for focusing. The emission filter was set at the FITC channel (475-650 nm, peak 525 nm) for autofluorescence signal collection and at the DAPI channel (400-600 nm, peak at 457 nm) for SHG signal collection. The XY scanning area for each sample was 635 μm by 635 μm, and Z scanning was 100 μm deep with 10 μm increments (stack of 11 images per sample). The summation of the average grey value processed in Image J at each layer was used as the representative signal strength for each sample.

Entries after “also recorded” stand apart in the source; their conditions may differ. Read-outs that look alike come from different tables or passages of the source.

Dextran: the “equilibrium modulus change” value in the assay on corneal buttons (20% Dextran + femtosecond laser 755-760 nm ~850 mW, coverslip, without oxygen) was “significantly increased the equilibrium modulus of the cornea, but the magnitudes are small”.

Consider “riboflavin-5-phosphate [R5P, reference compound]”, for which, in the assay on corneal buttons, the “equilibrium modulus change vs paired control (words)” value was “statistically significant differences” and the “viscoelastic ratio change vs paired control (words)” value is given as “more elastic response; also recorded: significantly different time-dependent elastic response”. In addition, in the assay with corneal buttons (listed as riboflavin), the “viscoelastic ratio change vs paired control (words)” value was “significant increase; also recorded: significantly increased” and the “equilibrium modulus change vs paired control (words)” value is recorded as “significantly increased”. Also, the equilibrium modulus with corneal buttons (Group 1D positive control: Dresden protocol, 0.1% R5P in 20% dextran 500 + UVA) is on record as 100 kPa. Besides, the “second harmonic generation signal intensity change vs paired control (words)” value in the assay with corneal tissues (Dresden protocol vs R5P exposed control) was “increased SHG signal; also recorded: statistically significant increase; also recorded: Statistical significance”. Besides, the “autofluorescence signal intensity change vs paired control (words)” value in the assay on corneal tissues (Dresden protocol vs R5P only control) was “increased; also recorded: Statistical significance”.
